Where two headings read alike, the source gives them in different places.
Molecular target: Endothelial lipase (EL) (Homo sapiens (Human), UniProt Q9Y5X9)
Test: Endothelial lipase (EL) enzymatic assay with fluorescent substrate A10070 in DMPG vesicles
Type: biochemical
Outline: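 EL from conditioned medium of HT-1080 cells engineered to overexpress endogenous EL; HL partially purified from conditioned medium of HL-overexpressing COS cells. Enzyme preincubated with compound 30 min at 37° C in 50 mM HEPES pH 8.0, 50 mM NaCl, 1 mM CaCl2; DMPG vesicles carrying FRET substrate (0.11 mole fraction) then added.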

[1] = EL from conditioned media of HT-1080 cells, 30 min preincubation at 37° C.

Sequence of Endothelial lipase (EL) (Q9Y5X9 21-500): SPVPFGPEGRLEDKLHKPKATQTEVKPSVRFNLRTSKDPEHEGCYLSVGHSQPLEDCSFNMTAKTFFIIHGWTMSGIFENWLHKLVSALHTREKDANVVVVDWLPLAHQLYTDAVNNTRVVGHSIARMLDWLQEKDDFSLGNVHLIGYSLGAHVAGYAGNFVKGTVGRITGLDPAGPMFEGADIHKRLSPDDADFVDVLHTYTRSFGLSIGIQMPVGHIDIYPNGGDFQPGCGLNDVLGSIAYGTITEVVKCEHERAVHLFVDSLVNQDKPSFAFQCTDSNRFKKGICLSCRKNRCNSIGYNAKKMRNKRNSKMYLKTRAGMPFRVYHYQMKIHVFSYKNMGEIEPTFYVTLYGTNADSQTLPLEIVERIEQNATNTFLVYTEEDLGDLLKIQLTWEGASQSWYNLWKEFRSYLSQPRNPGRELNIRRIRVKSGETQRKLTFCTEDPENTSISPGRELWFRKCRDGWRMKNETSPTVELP

SMILES	IC50 [nM]	IC50 [1] [nM]
O=C(CNC(=O)C(c1nc2cc(F)c(-c3ccc(NC(=O)OCC4CC4)cc3)cc2s1)S(=O)(=O)C1CC1)NC1CC1 (stereo not shown) [Example 530, cyclopropylmethyl N-(4-{2-[(cyclopropane-sulfonyl) ({[(cyclopropyl-carbamoyl)methyl]carbamoyl})methyl]-5-fluoro-1,3-benzothiazol-6-yl}phenyl) carbamate]	3	
O=C(CNC(=O)C(c1nc2cc(F)c(-c3ccc(NC(=O)OCC4CC4)cc3)cc2s1)S(=O)(=O)CCC(F)(F)F)NC1CC1 (stereo not shown) [Example 531, cyclopropylmethyl N-{4-[2-({[(cyclopropyl-carbamoyl)methyl]carbamoyl}(3,3,3-trifluoropropane-sulfonyl)methyl)-5-fluoro-1,3-benzothiazol-6-yl]phenyl} carbamate]	1	
COC(=O)Nc1ccccc1-c1cc2sc(C(C(=O)NCC(=O)NC3CC3)S(C)(=O)=O)nc2cc1F (stereo not shown) [Example 532, Methyl N-{2-[2({[(cyclopropylcarbamoyl)methyl]carbamoyl}(methanesulfonyl)methyl)-5-fluoro-1,3-benzothiazol-6-yl]phenyl}carbamate]		110
COCCOC(=O)Nc1ccc(-c2cc3sc(C(C(=O)NCC(=O)NC4CC4)S(C)(=O)=O)nc3cc2F)cc1 (stereo not shown) [Example 533, 2-methoxyethyl N-{4-[2-({[(cyclopropyl-carbamoyl)methyl]carbamoyl} (methanesulfonyl)methyl)-5-fluoro-1,3-benzothiazol-6-yl]phenyl} carbamate]	3	
COCCOC(=O)Nc1ccc(-c2cc3sc(C(C(=O)NCC(=O)NC4CC4)S(=O)(=O)CCC(F)(F)F)nc3cc2F)cc1 (stereo not shown) [Example 534, 2-methoxyethyl N-{4-[2-({[(cyclopropyl-carbamoyl)methyl]carbamoyl}(3,3,3-trifluoropropane-sulfonyl)methyl)-5-fluoro-1,3-benzothiazol-6-yl]phenyl} carbamate]	2	
COCCOC(=O)Nc1ccc(-c2cc3sc(C(C(=O)NCC(=O)NC4CC4)S(=O)(=O)CCOC)nc3cc2F)cc1 (stereo not shown) [Example 535, 2-methoxyethyl N-{4-[2-({[(cyclopropyl-carbamoyl)methyl]carbamoyl}(2-methoxyethane-sulfonyl)methyl)-5-fluoro-1,3-benzothiazol-6-yl]phenyl} carbamate]	4	
COCCOC(=O)Nc1ccc(-c2cc3sc(C(C(=O)NCC(=O)NC4CC4)S(=O)(=O)C4CC4)nc3cc2F)cc1 (stereo not shown) [Example 536, 2-methoxyethyl N-(4-{2-[(cyclopropane-sulfonyl) ({[(cyclopropyl-carbamoyl)methyl]carbamoyl})methyl]-5-fluoro-1,3-benzothiazol-6-yl}phenyl) carbamate]	2	
COCCS(=O)(=O)C(C(=O)NCC(=O)NC1CC1)c1nc2cc(F)c(-c3ccccc3NC(=O)OC)cc2s1 (stereo not shown) [Example 537, methyl N-{2-[2-({[(cyclopropyl-carbamoyl)methyl]carbamoyl}(2-methoxyethane-sulfonyl)methyl)-5-fluoro-1,3-benzothiazol-6-yl]phenyl} carbamate]	92	
COC(=O)Nc1ccc(-c2cc3sc(C(C(=O)NCC(=O)NC4CC4)S(C)(=O)=O)nc3cc2F)cc1OC (stereo not shown) [Example 538, Methyl N-{4-[2({[(cyclopropylcarbamoyl)methyl]carbamoyl}(methanesulfonyl)methyl)-5-fluoro-1,3-benzothiazol-6-yl]-2-methoxyphenyl}carbamate]		4.5
CC(C)OC(=O)Nc1ccc(-c2cc3sc(C(C(=O)NCC(=O)NC4CC4)S(C)(=O)=O)nc3cc2F)cc1 (stereo not shown) [Example 539, propan-2-yl N-{4-[2-({[(cyclopropyl-carbamoyl)methyl]carbamoyl} (methanesulfonyl)methyl)-5-fluoro-1,3-benzothiazol-6-yl]phenyl} carbamate]	1	
CC(C)OC(=O)Nc1ccc(-c2cc3sc(C(C(=O)NCC(=O)NC4CC4)S(=O)(=O)C(C)C)nc3cc2F)cc1 (stereo not shown) [Example 541, propan-2-yl N-{4-[2-({[(cyclopropyl-carbamoyl)methyl]carbamoyl} (propane-2-sulfonyl)methyl)-5-fluoro-1,3-benzothiazol-6-yl]phenyl} carbamate]	2	
CC(C)OC(=O)Nc1ccc(-c2cc3sc(C(C(=O)NCC(=O)NC4CC4)S(=O)(=O)C4CC4)nc3cc2F)cc1 (stereo not shown) [Example 542, propan-2-yl N-(4-{2-[(cyclopropane-sulfonyl) ({[(cyclopropyl-carbamoyl)methyl]carbamoyl})methyl]-5-fluoro-1,3-benzothiazol-6-yl}phenyl) carbamate]	2	
O=C(CNC(=O)C(c1nc2cc(-c3ccc(NC(=O)OCc4ccccc4)nc3)c(F)cc2s1)S(=O)(=O)CCC(F)(F)F)NC1CC1 (stereo not shown) [Example 543, benzyl N-{5-[2-({[(cyclopropyl-carbamoyl)methyl]carbamoyl}(3,3,3-trifluoropropane-sulfonyl)methyl)-6-fluoro-1,3-benzothiazol-5-yl]pyridin-2-yl} carbamate]	6	
COC(=O)N(C)c1cccc(-c2ccc3nc(C(C(=O)NCC(=O)NC4CC4)S(C)(=O)=O)sc3c2)c1 (stereo not shown) [Example 544, methyl N-{3-[2-({[(cyclopropyl-carbamoyl)methyl]carbamoyl} (methanesulfonyl)methyl)-1,3-benzothiazol-6-yl]phenyl}-N-methylcarbamate]	19	
COCCS(=O)(=O)C(C(=O)NCC(=O)NC1CC1)c1nc2ccc(-c3cccc(N(C)C(=O)OC)c3)cc2s1 (stereo not shown) [Example 545, methyl N-{3-[2-({[(cyclopropyl-carbamoyl)methyl]carbamoyl}(2-methoxyethane-sulfonyl)methyl)-1,3-benzothiazol-6-yl]phenyl}-N-methylcarbamate]	13	
COC(=O)N(C)c1cccc(-c2ccc3nc(C(C(=O)NCC(=O)NC4CC4)S(=O)(=O)CCC(F)(F)F)sc3c2)c1 (stereo not shown) [Example 546, methyl N-{3-[2-({[(cyclopropyl-carbamoyl)methyl]carbamoyl}(3,3,3-trifluoropropane-sulfonyl)methyl)-1,3-benzothiazol-6-yl]phenyl}-N-methylcarbamate]	7	
COC(=O)N(C)c1cccc(-c2cc3sc(C(C(=O)NCC(=O)NC4CC4)S(C)(=O)=O)nc3cc2F)c1 (stereo not shown) [Example 547, methyl N-{3-[2-({[(cyclopropyl-carbamoyl)methyl]carbamoyl} (methanesulfonyl)methyl)-5-fluoro-1,3-benzothiazol-6-yl]phenyl}-N-methylcarbamate]	8	
COCCS(=O)(=O)C(C(=O)NCC(=O)NC1CC1)c1nc2cc(F)c(-c3cccc(N(C)C(=O)OC)c3)cc2s1 (stereo not shown) [Example 548, methyl N-{3-[2-({[(cyclopropyl-carbamoyl)methyl]carbamoyl}(2-methoxyethane-sulfonyl)methyl)-5-fluoro-1,3-benzothiazol-6-yl]phenyl}-N-methylcarbamate]	12	
COCCS(=O)(=O)C(C(=O)NCC(=O)NC1CC1)c1nc2cc(F)c(-c3cccc(NC(=O)OCc4ccccc4)c3)cc2s1 (stereo not shown) [Example 549, benzyl N-{3-[2-({[(cyclopropyl-carbamoyl)methyl]carbamoyl}(2-methoxyethane-sulfonyl)methyl)-5-fluoro-1,3-benzothiazol-6-yl]phenyl} carbamate]	4	
